Laboratory results from EP4070856A1, “ORGANIC COMPOUNDS AND USES THEREOF” (Adebiyi, Ezekiel, priority 2021, dated 2022).

assay: In vitro cytotoxicity with L-6 cells (Alamar Blue); format: cell-based; details: L-6 cells (rat skeletal myoblasts), 70 h + 2 h Alamar Blue; read-out: Cytotoxicity L6 IC50
Protocol: Assays were performed in 96-well microtiter plates, each well containing 100 µl of RPMI 1640 medium supplemented with 1% L-glutamine (200mM) and 10% fetal bovine serum, and 4000 L-6 cells (a primary cell line derived from rat skeletal myoblasts). Serial drug dilutions of eleven 3-fold dilution steps covering a range from 100 to 0.002 µg/ml were prepared. After 70hours of incubation the plates were inspected under an inverted microscope to assure growth of the controls and sterile conditions. 10µl of Alamar Blue was then added to each well and the plates incubated for another 2 hours. Later they were read with a Spectramax Gemini XS microplate fluorometer (Molecular Devices Cooperation, Sunnyvale, CA, USA) using an excitation wave length of 536 nm and an emission wave length of 588 nm. The IC50 values were calculated by linear regression from the sigmoidal dose inhibition curves using SoftmaxPro software (Molecular Devices Cooperation, Sunnyvale, CA, USA). Podophyllotoxin (Sigma P4405) as control.

With `N=C(N)c1ccc(S(=O)(=O)NO)cc1` [Compound 12d] as the compound, how does the CC50 at 72 h read?
The CC50 at 72 h was over 100 µg/mL.

With `CC(=O)N(O)c1ccc(C(=N)NO)cc1` [Compound 10c] as the compound, how does the CC50 at 72 h read?
The CC50 at 72 h was 52.2 µg/mL.

With `N#Cc1nc(-c2ccco2)c[n+]([O-])c1N` [Compound 16b] as the compound, how does the CC50 at 72 h read?
Its CC50 at 72 h is 61.1 µg/mL.

With `O=C(NO)Nc1ccc(Cl)c(Cl)c1` [Compound 4b] as the compound, how does the CC50 at 72 h read?
Its CC50 at 72 h is over 100 µg/mL.

For `CC(C)(C)C(=O)N(O)c1ccc(C#N)cc1` [Compound 15a], which CC50 at 72 h is on record?
The CC50 at 72 h was 33.5 µg/mL.

For `Nc1nc2ncc(C(=O)O)nc2c(=O)[nH]1` [Compound P6CAH], which CC50 at 72 h is on record?
The CC50 at 72 h was over 100 µg/mL.

Which CC50 at 72 h does the source give for `CCCCONC(=O)c1ccc(NC(=N)N)cc1` [Compound 9d] here?
Its CC50 at 72 h is over 100 µg/mL.

With `O=C(NO)NC1CCCCC1` [Compound 7b] as the compound, how does the CC50 at 72 h read?
Its CC50 at 72 h is 93 µg/mL.

With `N=C(NO)c1ccc(NC(=O)NO)cc1` [Compound 2c] as the compound, how does the CC50 at 72 h read?
The CC50 at 72 h was over 100 µg/mL.

With `NC(=O)c1ccc(S(=O)(=O)NO)cc1` [Compound 12c] as the compound, how does the CC50 at 72 h read?
Its CC50 at 72 h is over 100 µg/mL.

With `N=C(NO)c1ccc(C(=O)NO)cc1` [Compound 1c] as the compound, how does the CC50 at 72 h read?
The CC50 at 72 h was 56.1 µg/mL.

Which CC50 at 72 h does the source give for `N=C(NO)c1ccc(NC(=O)NOCc2ccccc2)cc1` [Compound 2b] here?
Its CC50 at 72 h is 43 µg/mL.

With `Nc1ccc(C(=O)NO)cc1` [Compound 9b] as the compound, how does the CC50 at 72 h read?
The CC50 at 72 h was 43.4 µg/mL.

Which CC50 at 72 h does the source give for `N=C(N)c1ccc(N)cc1` [Compound 13c] here?
The CC50 at 72 h was 42.9 µg/mL.

With `N=C(NO)c1ccc(NC(=S)NOCc2ccccc2)cc1` [Compound 3c] as the compound, how does the CC50 at 72 h read?
Its CC50 at 72 h is 57.6 µg/mL.

Which IC50 at 72 h does the source give for `COc1cc([C@@H]2c3cc4c(cc3[C@H](O)[C@H]3COC(=O)[C@H]23)OCO4)cc(OC)c1OC` [Podophyllotoxin, reference compound] here?
The IC50 at 72 h was 0.006 µg/mL.

With `Cc1ccc(S(=O)(=O)NC(C#N)C#N)cc1` [Compound 16a] as the compound, how does the CC50 at 72 h read?
Its CC50 at 72 h is over 100 µg/mL.

Which CC50 at 72 h does the source give for `N=C(NO)c1ccc(S(=O)(=O)NO)cc1` [Compound 12b] here?
Its CC50 at 72 h is over 100 µg/mL.
